Values joined by “and” are separate entries in the source; they are usually repeats but may differ in a detail not shown here. Identical values can stand only once. Inconclusive results and toxic doses are left out. No stated cut-off is given here; in the data, active means T/C of 150% or more; inactive means T/C below 125%.
Test system: L1210 leukemia ip in BDF1 mice, survival T/C
Test: NCI In Vivo Anticancer Drug Screen. Data for tumor model L1210 Leukemia (intraperitoneal) in B6D2F1 (BDF1) mice
Conditions: endpoint: mean survival time, higher = longer survival
How it was run: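 Mice bearing the transplanted tumor received compound or vehicle. Survival of the treated group was divided by that of the vehicle-treated control group to give the ratio.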

[1] = dose: 6.25 mg/kg/injection, schedule: Q04DX003 (ip), vehicle: saline
[2] = dose: 100.0 mg/kg/injection, schedule: Q01DX001 (ip), vehicle: saline
[3] = dose: 200.0 mg/kg/injection, schedule: Q01DX001 (ip), vehicle: saline
[4] = dose: 400.0 mg/kg/injection, schedule: Q01DX001 (ip), vehicle: saline
[5] = dose: 100.0 mg/kg/injection, schedule: Q04DX003 (ip), vehicle: Klucel (hydroxypropylcellulose) (HPC)
[6] = dose: 100.0 mg/kg/injection, schedule: Q01DX001 (ip), vehicle: other
[7] = dose: 200.0 mg/kg/injection, schedule: Q01DX001 (ip), vehicle: other
[8] = dose: 400.0 mg/kg/injection, schedule: Q01DX001 (ip), vehicle: other
[9] = dose: 200.0 mg/kg/injection, schedule: Q04DX003 (ip), vehicle: Klucel (hydroxypropylcellulose) (HPC)

Measured: T/C

CC[N+](C)(CC)CCC[n+]1c(-c2ccccc2)c2cc(N)ccc2c2ccc(N)cc21
inactive: dose: 1.56 mg/kg/injection, schedule: Q01DX009 (ip), vehicle: saline 104 % of control | dose: 1.56 mg/kg/injection, schedule: Q04DX003 (ip), vehicle: saline 100 % of control | dose: 3.12 mg/kg/injection, schedule: Q01DX009 (ip), vehicle: saline 109 % of control and 110 % of control | dose: 3.12 mg/kg/injection, schedule: Q04DX003 (ip), vehicle: saline 109 % of control | dose: 6.25 mg/kg/injection, schedule: Q01DX009 (ip), vehicle: saline 100 % of control and 110 % of control | [1] 112 % of control | dose: 6.25 mg/kg/injection, schedule: Q04DX003 (ip), vehicle: water 98 % of control | dose: 12.5 mg/kg/injection, schedule: Q04DX003 (ip), vehicle: water 93 % of control

COc1ccc(OC)c2c(=O)cc(C)[nH]c12
inactive: [2] 100 % of control | [3] 92 % of control | [4] 102 % of control

CC12CCC(=O)C=C1CCC1C2CCC2(C)C(OC(=O)c3ccc(N)cc3)CCC12 (centres undefined)
inactive: dose: 100.0 mg/kg/injection, schedule: Q04DX002 (ip), vehicle: saline with Tween-80 94 % of control | dose: 200.0 mg/kg/injection, schedule: Q04DX002 (ip), vehicle: saline with Tween-80 91 % of control | dose: 400.0 mg/kg/injection, schedule: Q04DX002 (ip), vehicle: saline with Tween-80 94 % of control

NC(CSS(=O)(=O)O)=NCCCC1CCCCC1
inactive: dose: 6.25 mg/kg/injection, schedule: Q04DX002 (ip), vehicle: saline with Tween-80 97 % of control | dose: 12.5 mg/kg/injection, schedule: Q04DX002 (ip), vehicle: saline with Tween-80 101 % of control

CCOC(=O)c1c(NC(C)=O)sc2c1CCCC2
inactive: dose: 50.0 mg/kg/injection, schedule: Q01DX009 (ip), vehicle: saline with Tween-80 108 % of control | dose: 100.0 mg/kg/injection, schedule: Q01DX009 (ip), vehicle: saline with Tween-80 108 % of control | dose: 200.0 mg/kg/injection, schedule: Q01DX009 (ip), vehicle: saline with Tween-80 95 % of control

CC1(C)C(=NNC(N)=O)C(C)(C)C1=NNC(N)=O
inactive: [2] 96 % of control | [5] 91 % of control | [3] 94 % of control | [4] 90 % of control

CC(=O)Nc1cccc(-c2ccccc2Cl)c1
inactive: [2] 93 % of control | [3] 96 % of control | [4] 98 % of control

O=C(Cc1ccccc1)Nc1cc(C(F)(F)F)ccc1Cl
inactive: dose: 100.0 mg/kg/injection, schedule: Q04DX002 (ip), vehicle: saline 100 % of control | dose: 200.0 mg/kg/injection, schedule: Q04DX002 (ip), vehicle: saline 93 % of control | dose: 400.0 mg/kg/injection, schedule: Q04DX002 (ip), vehicle: saline 100 % of control

COc1ccc(C2=C(C)CC3c4cc(OC)c(OC)cc4CCN3C2)cc1OC (centres undefined)
inactive: dose: 52.0 mg/kg/injection, schedule: Q01DX001 (ip), vehicle: carboxymethylcellulose (CMC) 101 % of control | dose: 78.0 mg/kg/injection, schedule: Q01DX001 (ip), vehicle: carboxymethylcellulose (CMC) 104 % of control | dose: 177.0 mg/kg/injection, schedule: Q01DX001 (ip), vehicle: carboxymethylcellulose (CMC) 118 % of control

Cc1ccc(N=Nc2c(O)ccc3ccccc23)c([N+](=O)[O-])c1
inactive: [6] 96 % of control | dose: 100.0 mg/kg/injection, schedule: Q04DX003 (ip), vehicle: other 95 % of control | [7] 95 % of control | dose: 200.0 mg/kg/injection, schedule: Q04DX003 (ip), vehicle: other 91 % of control | [8] 96 % of control | dose: 400.0 mg/kg/injection, schedule: Q04DX003 (ip), vehicle: other 93 % of control

c1ccc(C2=Nc3ccccc3NC2c2ccccc2)cc1 (centres undefined)
inactive: dose: 50.0 mg/kg/injection, schedule: Q04DX003 (ip), vehicle: Klucel (hydroxypropylcellulose) (HPC) 100 % of control | [5] 89 % of control | [9] 98 % of control

CCCCCCC(=C/c1ccccc1)/C=N/NC(=O)c1ccc[n+](C)c1
inactive: dose: 25.0 mg/kg/injection, schedule: Q04DX003 (ip), vehicle: saline with Tween-80 93 % of control | dose: 50.0 mg/kg/injection, schedule: Q04DX003 (ip), vehicle: saline with Tween-80 116 % of control | dose: 100.0 mg/kg/injection, schedule: Q04DX003 (ip), vehicle: saline with Tween-80 104 % of control

CC(=O)C(C(=O)c1ccccc1)c1cc(NS(=O)(=O)N(C)C)ccc1NS(=O)(=O)N(C)C (centres undefined)
inactive: dose: 25.0 mg/kg/injection, schedule: Q01DX001 (ip), vehicle: saline with Tween-80 98 % of control | dose: 50.0 mg/kg/injection, schedule: Q01DX001 (ip), vehicle: saline with Tween-80 93 % of control | dose: 100.0 mg/kg/injection, schedule: Q01DX001 (ip), vehicle: saline with Tween-80 100 % of control

O=[N+]([O-])c1ccc(/C=N\N=C\c2ccc([N+](=O)[O-])cc2)cc1
inactive: [6] 104 % of control | [7] 104 % of control | [8] 104 % of control

CCOC(=O)C1=C(C#N)C(C(=O)OCC)c2ncccc21 (centres undefined)
inactive: dose: 50.0 mg/kg/injection, schedule: Q01DX005 (ip), vehicle: saline 97 % of control | dose: 100.0 mg/kg/injection, schedule: Q01DX005 (ip), vehicle: saline 88 % of control | dose: 200.0 mg/kg/injection, schedule: Q01DX005 (ip), vehicle: saline 87 % of control | dose: 400.0 mg/kg/injection, schedule: Q01DX005 (ip), vehicle: saline 95 % of control

C=CCOCCN1CCN(CCCN2c3ccccc3Sc3ccc(C(F)(F)F)cc32)CC1
inactive: dose: 0.23 mg/kg/injection, schedule: Q01DX009 (ip), vehicle: saline 93 % of control | dose: 0.35 mg/kg/injection, schedule: Q01DX009 (ip), vehicle: saline 86 % of control | dose: 0.54 mg/kg/injection, schedule: Q01DX009 (ip), vehicle: saline 98 % of control | dose: 1.09 mg/kg/injection, schedule: Q01DX009 (ip), vehicle: saline 111 % of control | dose: 2.18 mg/kg/injection, schedule: Q01DX009 (ip), vehicle: saline 86 % of control | [1] 101 % of control | dose: 12.5 mg/kg/injection, schedule: Q04DX003 (ip), vehicle: saline 110 % of control | dose: 16.0 mg/kg/injection, schedule: Q01DX003 (ip), vehicle: saline 117 % of control | dose: 17.0 mg/kg/injection, schedule: Q04DX003 (ip), vehicle: saline 101 % of control | dose: 25.0 mg/kg/injection, schedule: Q01DX003 (ip), vehicle: saline 108 % of control | dose: 25.0 mg/kg/injection, schedule: Q04DX003 (ip), vehicle: saline 106 % of control

NNC(=O)CCCCC(=O)NN
inactive: dose: 100.0 mg/kg/injection, schedule: Q04DX003 (ip), vehicle: saline 100 % of control | dose: 200.0 mg/kg/injection, schedule: Q04DX003 (ip), vehicle: saline 97 % of control | dose: 400.0 mg/kg/injection, schedule: Q04DX003 (ip), vehicle: saline 100 % of control

Cc1ccc(N=Cc2cccc([N+](=O)[O-])c2)cc1
inactive: dose: 100.0 mg/kg/injection, schedule: Q01DX001 (ip), vehicle: Klucel (hydroxypropylcellulose) (HPC) 100 % of control | [5] 98 % of control | dose: 200.0 mg/kg/injection, schedule: Q01DX001 (ip), vehicle: Klucel (hydroxypropylcellulose) (HPC) 94 % of control | [9] 100 % of control | dose: 400.0 mg/kg/injection, schedule: Q01DX001 (ip), vehicle: Klucel (hydroxypropylcellulose) (HPC) 91 % of control | dose: 400.0 mg/kg/injection, schedule: Q04DX003 (ip), vehicle: Klucel (hydroxypropylcellulose) (HPC) 103 % of control

From PubChem BioAssay AID248 (DTP/NCI, 2004)
